# Measurements reported in US6464988B1, “Glipizide-cyclodextrin inclusion complexes and their pharmaceutical composition” (USV Limited, priority 2001, dated 2002).
# Assay: In-vitro dissolution studies (% release of glipizide)
# Format: physicochemical
# Conditions: containing 10 mg of Glipizide
substance,measurement,setting,value
1-cyclohexyl -3-[[p-[2-(methylpyrazinecarboxamido)ethyl]phenyl]sulfonyl]urea [Glipizide],% release of glipizide,"0.1N Hydrochloric acid, 200 ml, 5 mins",14-18%
same,% release of glipizide,"0.1N Hydrochloric acid, 200 ml, 15 mins",23-24%
same,% release of glipizide,"0.1N Hydrochloric acid, 200 ml, 30 mins",23-26%
same,% release of glipizide,"0.1N Hydrochloric acid, 400 ml, 5 mins",16-20%
same,% release of glipizide,"0.1N Hydrochloric acid, 400 ml, 15 mins",26-27%
same,% release of glipizide,"0.1N Hydrochloric acid, 400 ml, 30 mins",26-30%
same,% release of glipizide,"0.1N Hydrochloric acid, 900 ml, 5 mins",16-18%
same,% release of glipizide,"0.1N Hydrochloric acid, 900 ml, 15 mins",22-26%
same,% release of glipizide,"0.1N Hydrochloric acid, 900 ml, 30 mins",24-27%
same,% release of glipizide,"Phosphate Buffer pH 6.8 USP, 200 ml, 5 mins",23-27%
same,% release of glipizide,"Phosphate Buffer pH 6.8 USP, 200 ml, 15 mins",65-67%
same,% release of glipizide,"Phosphate Buffer pH 6.8 USP, 200 ml, 30 mins",64-67%
same,% release of glipizide,"Phosphate Buffer pH 6.8 USP, 400 ml, 5 mins",24-29%
same,% release of glipizide,"Phosphate Buffer pH 6.8 USP, 400 ml, 15 mins",64-69%
same,% release of glipizide,"Phosphate Buffer pH 6.8 USP, 400 ml, 30 mins",65-67%
same,% release of glipizide,"Phosphate Buffer pH 6.8 USP, 900 ml, 5 mins",25-28%
same,% release of glipizide,"Phosphate Buffer pH 6.8 USP, 900 ml, 15 mins",55-62%
same,% release of glipizide,"Phosphate Buffer pH 6.8 USP, 900 ml, 30 mins",65-68%
same,% release of glipizide,"Purified water pH 7.0, 200 ml, 5 mins",30-32%
same,% release of glipizide,"Purified water pH 7.0, 200 ml, 15 mins",38-40%
same,% release of glipizide,"Purified water pH 7.0, 200 ml, 30 mins",39-41%
same,% release of glipizide,"Purified water pH 7.0, 400 ml, 5 mins",32-34%
same,% release of glipizide,"Purified water pH 7.0, 400 ml, 15 mins",40-42%
same,% release of glipizide,"Purified water pH 7.0, 400 ml, 30 mins",40-44%
same,% release of glipizide,"Purified water pH 7.0, 900 ml, 5 mins",20-25%
same,% release of glipizide,"Purified water pH 7.0, 900 ml, 15 mins",30-33%
same,% release of glipizide,"Purified water pH 7.0, 900 ml, 30 mins",38-41%
